Results published in patent publication US8481732B2 (Incyte Corporation, priority 2009, dated 2013).
pIC50: −log10 of the molar value.

Each compound was assayed against T1, histamine H4 receptor (Homo sapiens, UniProt Q9H3N8) (assay: H4 Membrane Binding Assay (3H-Histamine displacement)). Conditions: membranes of recombinant HEK293SFM cells, 10 nM 3H-Histamine, 1.5 hr at room temperature.
T1 construct: expressed in transfected cells; host or cells: HEK293SFM cells (membrane preparation)
T1 sequence (Q9H3N8 whole entry): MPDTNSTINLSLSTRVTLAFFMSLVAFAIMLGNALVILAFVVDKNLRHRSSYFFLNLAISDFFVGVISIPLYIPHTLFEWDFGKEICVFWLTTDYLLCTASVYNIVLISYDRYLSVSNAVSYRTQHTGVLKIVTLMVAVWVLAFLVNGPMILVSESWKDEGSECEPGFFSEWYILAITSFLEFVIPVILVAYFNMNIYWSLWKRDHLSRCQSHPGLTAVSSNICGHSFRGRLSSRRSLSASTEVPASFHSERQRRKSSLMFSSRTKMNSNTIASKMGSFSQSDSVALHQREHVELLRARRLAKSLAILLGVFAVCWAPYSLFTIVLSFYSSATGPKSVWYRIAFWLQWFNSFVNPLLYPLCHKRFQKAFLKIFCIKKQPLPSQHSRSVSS
How it was run: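 Membranes from HEK293SFM cells expressing human H4 (also human H1–H3, mouse H4), prepared in ice-cold 50 mM Tris-HCl pH 7.5. [3H]-histamine displacement, nonspecific binding defined with 1000× unlabeled ligand. Bound radioactivity separated on PEI-treated GF/B filters and measured by liquid scintillation counting.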
With COc1cccc(COc2ccc3c(c2)C(NC(=O)c2ccc4c(N5CCN(C)CC5)nc(N)nc4c2)CCC3)c1 (centres unmarked) [Example 203, 2-Amino-N-(7-(3-methoxybenzyloxy)-1,2,3,4-tetrahydronaphthalen-1-yl)-4-(4-methylpiperazin-1-yl)quinazoline-7-carboxamide] the pIC50 was 7.77. CN1CCN(c2cc(-c3ccc4c(c3)CN(C(=O)CC3CCN(C(=O)C5CC5)CC3)CC4)nc(N)n2)CC1 [Example 72, 4-(2-{[1-(Cyclopropylcarbonyl)piperidin-4-yl]acetyl}-1,2,3,4-tetrahydroisoquinolin-7-yl)-6-(4-methylpiperazin-1-yl)pyrimidin-2-amine] gave a pIC50 of 6.38. CN1CCN(c2cc(-c3ccc4c(c3)CN(C(=O)CC(C)(C#N)C3CC3)CC4)nc(N)n2)CC1 (centres unmarked) [Example 123, 4-[7-[2-Amino-6-(4-methylpiperazin-1-yl)pyrimidin-4-yl]-3,4-dihydroisoquinolin-2(1H)-yl]-2-cyclopropyl-2-methyl-4-oxobutanenitrile] gave a pIC50 of 6.98. CN1CCN(c2cc(-c3ccc4c(c3)CN(C(=O)Nc3ccc(-c5ccccc5)cn3)CC4)nc(N)n2)CC1 [Example 91, 7-[2-Amino-6-(4-methylpiperazin-1-yl)pyrimidin-4-yl]-N-(5-phenylpyridin-2-yl)-3,4-dihydroisoquinoline-2(1H)-carboxamide] gave a pIC50 of 7.20. COc1ccc(-c2ccc(CC(NC(=O)c3ccc4c(N5CCN(C)CC5)nc(N)nc4c3)C(=O)N(C)C)cn2)cc1 (centres unmarked) [Example 164, 2-Amino-N-(-2-(dimethylamino)-1-{[6-(4-methoxyphenyl)pyridin-3-yl]methyl}-2-oxoethyl)-4-(4-methylpiperazin-1-yl)quinazoline-7-carboxamide] was tested, and the pIC50 was 7.24. In the case of CN1CCN(c2nc(N)nc3cc(C(=O)NC(Cc4cccc(Oc5cc(Cl)cc(Cl)c5)c4)C(=O)N(C)C)ccc23)CC1 (centres unmarked) [Example 167, 2-Amino-N-[1-[3-(3,5-dichlorophenoxy)benzyl]-2-(dimethylamino)-2-oxoethyl]-4-(4-methylpiperazin-1-yl)quinazoline-7-carboxamide], the pIC50 was 7.82. COc1ccc(Oc2cccc(CC(NC(=O)c3ccc4c(N5CCN(C)CC5)nc(N)nc4c3)C(=O)N(C)C)c2)cc1 (centres unmarked) [Example 166, 2-Amino-N-{2-(dimethylamino)-1-[3-(4-methoxyphenoxy)benzyl]-2-oxoethyl}-4-(4-methylpiperazin-1-yl)quinazoline-7-carboxamide] showed a pIC50 of 7.51. Work on CN1CCN(c2nc(N)nc3cc(C(=O)NC(Cc4cccc(Oc5cccc(C#N)c5)c4)C(=O)N(C)C)ccc23)CC1 (centres unmarked) [Example 174, 2-Amino-N-(3-(3-(3-cyanophenoxy)phenyl)-1-(dimethylamino)-1-oxopropan-2-yl)-4-(4-methylpiperazin-1-yl)quinazoline-7-carboxamide] yielded a pIC50 of 7.64. For CN1CCN(c2cc(-c3ccc4c(c3)CN(C(=O)C3CCCCC3)CC4)nc(N)n2)CC1 [Example 105, 4-[2-(Cyclohexylcarbonyl)-1,2,3,4-tetrahydroisoquinolin-7-yl]-6-(4-methylpiperazin-1-yl)pyrimidin-2-amine], the pIC50 was 7.09. For CN1CCN(c2nc(N)nc3cc(C(=O)NCc4cccc(Oc5cc(C#N)ccn5)c4)ccc23)CC1 [Example 183, 2-Amino-N-{3-[(4-cyanopyridin-2-yl)oxy]benzyl}-4-(4-methylpiperazin-1-yl)quinazoline-7-carboxamide], the pIC50 was 7.19. Work on CN1CCN(c2cc(-c3ccc4c(c3)CN(C(=O)Nc3ccc(C#N)cn3)CC4)nc(N)n2)CC1 [Example 43, 7-[2-Amino-6-(4-methylpiperazin-1-yl)pyrimidin-4-yl]-N-(5-cyanopyridin-2-yl)-3,4-dihydroisoquinoline-2(1H)-carboxamide] yielded a pIC50 of 7.24. CCOC(=O)N1CCC(OC(=O)N2CCc3ccc(-c4cc(N5CCN(C)CC5)nc(N)n4)cc3C2)CC1 [Example 116, 1-(Ethoxycarbonyl)piperidin-4-yl 7-[2-amino-6-(4-methylpiperazin-1-yl)pyrimidin-4-yl]-3,4-dihydroisoquinoline-2(1H)-carboxylate] was tested, and the pIC50 was 7.42. CN1CCN(c2cc(-c3ccc4c(c3)CN(C(=O)COc3cccc(Cl)c3)CC4)nc(N)n2)CC1 [Example 66, 4-{2-[(3-Chlorophenoxy)acetyl]-1,2,3,4-tetrahydroisoquinolin-7-yl}-6-(4-methylpiperazin-1-yl)pyrimidin-2-amine] showed a pIC50 of 7.36. For CC(C)Oc1ccc(NC(=O)N2CCc3ccc(-c4cc(N5CCN(C)CC5)nc(N)n4)cc3C2)cc1 [Example 92, 7-[2-Amino-6-(4-methylpiperazin-1-yl)pyrimidin-4-yl]-N-(4-isopropoxyphenyl)-3,4-dihydroisoquinoline-2(1H)-carboxamide], the pIC50 was 7.30. Compound COC(=O)N1CCC(CC(=O)N2CCc3ccc(-c4cc(N5CCN(C)CC5)nc(N)n4)cc3C2)C1 (centres unmarked) [Example 118, Methyl 3-{2-[7-[2-amino-6-(4-methylpiperazin-1-yl)pyrimidin-4-yl]-3,4-dihydroisoquinolin-2(1H)-yl]-2-oxoethyl}pyrrolidine-1-carboxylate] has a pIC50 of 6.75. With COC(=O)c1ccc(COc2cccc(CNC(=O)c3ccc4c(N5CCN(C)CC5)nc(N)nc4c3)c2)cc1 [Example 193, Methyl 4-({3-[({[2-amino-4-(4-methylpiperazin-1-yl)quinazolin-7-yl]carbonyl}amino)methyl]phenoxy}methyl)benzoate] the pIC50 was 8.14. With CN1CCN(c2nc(N)nc3cc(C(=O)Nc4cccc(Cl)c4)ccc23)CC1 [Example 27, 2-Amino-N-(3-chlorophenyl)-4-(4-methylpiperazin-1-yl)quinazoline-7-carboxamide] the pIC50 was 6.05. In the case of CN1CCN(c2nc(N)nc3cc(C(=O)NCC4CC4)ccc23)CC1 [Example 25, 2-Amino-N-(cyclopropylmethyl)-4-(4-methylpiperazin-1-yl)quinazoline-7-carboxamide], the pIC50 was 6.24. CNC(=O)c1ccc2c(N3CCN(C)CC3)nc(N)nc2c1 [Example 26, 2-Amino-N-methyl-4-(4-methylpiperazin-1-yl)quinazoline-7-carboxamide] showed a pIC50 of 6.31. In the case of CO[C@@H]1Cc2ccccc2[C@@H]1NC(=O)N1CCc2ccc(-c3cc(N4CCN(C)CC4)nc(N)n3)cc2C1 [Example 57, 7-[2-Amino-6-(4-methylpiperazin-1-yl)pyrimidin-4-yl]-N-[(1S,2R)-2-methoxy-2,3-dihydro-1H-inden-1-yl]-3,4-dihydroisoquinoline-2(1H)-carboxamide], the pIC50 was 7.03.
